According to article PMC3229523, “Identification of Lactoferricin B Intracellular Targets Using an Escherichia coli Proteome Chip” (PLoS ONE, 2011):
“Also recorded” adds a separate entry of the source. Ends that are not written are not given here. * marks the point of attachment. Biotin = O=C1N[C@H]2[C@H](CS[C@H]2CCCCC(=O)*)N1

How the values were obtained:
[1] = tested on: CyaA
Text: (§1) FP assays, investigations of the binding between two molecules in a homogeneous aqueous environment, were used to validate the identified 153 proteins. […] If a fluorophore only binds to a small molecule, such as peptide, the rotation of the complex is fast and the light emits in a different plane of polarization. Therefore, the degree of polarization is low. However, once a fluorophore binds to a large molecule, the bound complex is stimulated with polarized light. The light emits in the same polarized plane, and the complex is maintained in the same plane of polarization, causing an increase in the degree of polarization [22]–[24]. The amount of molecules binding to a fluorophore influences the degree of polarization. In this study, LfcinB was labeled with DyLight™ 549 as a reference value. Once the protein bound to LfcinB, like a fluorophore binds to a large molecule, a high degree of polarization is expected.
(§2) Before the assays, LfcinB was labeled with DyLight™ 549 and tested proteins were quantified with a Pierce® bicinchoninic acid (BCA™) protein assay (Thermo). To label the LfcinB, DyLight™ 549-NHS ester and LfcinB (68∶1, mole/mole) were mixed in PBS at room temperature for 1 h, a D-Salt™ polyacrylamide desalting column (Thermo) was used to remove excess dye and the labeling efficiency of the eluted solution was calculated. […]

[2] = tested on: NrdD; assay: Fluorescence polarization assay, NrdD; format: binding, E. coli; conditions: 100 nM DyLight 549-labeled LfcinB; protein 0.025-0.4 µM; data not shown
Text: as §1, §2

[3] = tested on: isogenic parent strain and the knockout strains; assay: Knockout assay, isogenic parent and knockout strains together; format: cell-based, E. coli K-12; conditions: 32 µM LfcinB, LB medium, 37°C
Protocol: (§3) The E. coli K-12 BW25113 (isogenic parent) strain and the 16 knockout strains were obtained from the E. coli Genetic Resources at the Coli Genetic Stock Center (CGSC) at Yale University. The strains were inoculated into LB medium, and incubated at 37°C with shaking. After 16 h of incubation, the cultures were diluted to approximately 10^7 CFU/ml with LB medium. Thirty-two µM of LfcinB were then added to the cultures in a 96-well plate. PBS was used as a negative control. Cultures with LfcinB or PBS were then incubated at 37°C with shaking in a microplate reader and the growth was observed by measuring the OD595 value every 20 min for 7 h 20 min.

[4] = tested on: bacteria; conditions: cited from earlier work
Text: Natural antimicrobial peptides are pervasive in plants, insects and animals.

[5] = tested on: other 15 knockout strains; assay: Knockout assay, other 15 knockout strains; format: cell-based, E. coli K-12; conditions: 32 µM LfcinB, LB medium, 37°C
Protocol: as §3

[6] = tested on: nrdF knockout mutant; assay: Knockout assay, nrdF knockout mutant; format: cell-based, E. coli K-12; conditions: 32 µM LfcinB, LB medium, 37°C
Protocol: as §3

[7] = tested on: E. coli K-12 BW25113 (isogenic parent) strain; assay: Knockout assay, isogenic parent strain; format: cell-based; conditions: 32 µM LfcinB, LB medium, 37°C, approx. 10^7 CFU/ml
Protocol: as §3

[8] = tested on: YcaO; assay: Fluorescence polarization assay, YcaO; format: binding, E. coli; conditions: 100 nM DyLight 549-labeled LfcinB; protein 0.025-0.4 µM; data not shown
Text: as §1, §2

[9] = tested on: YhaN; assay: Fluorescence polarization assay, YhaN; format: binding, E. coli; conditions: 100 nM DyLight 549-labeled LfcinB; protein 0.025-0.4 µM; data not shown
Text: as §1, §2

[10] = tested on: GldA; assay: Fluorescence polarization assay, GldA; format: binding, E. coli; conditions: 100 nM DyLight 549-labeled LfcinB; protein 0.025-0.4 µM; data not shown
Text: as §1, §2

[11] = tested on: NrdF; assay: Fluorescence polarization assay, NrdF; format: binding, E. coli
Text: as §1, §2

[12] = tested on: pyruvate in E. coli; assay: Pyruvate assay: pyruvate level in E. coli (OD570); format: cell-based, E. coli MG1655; conditions: 32 µM LfcinB
Text: To confirm one of the mechanisms of LfcinB action in pyruvate metabolism, a minimal medium was chosen; because general LB medium contains many carbon sources, including sugars, alcohols and organic acids, this minimal medium allowed glucose to be the sole carbon source in the pyruvate assays. Minimal medium consisted of 6 g/l NaH2PO4, 3 g/l K2HPO4, 0.5 g/l NaCl, 0.12 g/l MgSO4, 1 g/l NH4Cl, 0.01 g/l CaCl2 and 5 g/l glucose. A 0.22 µm filter (Millex®GS, Millipore) was used to filter the minimal medium. E. coli MG1655 was first inoculated into the minimal medium and incubated at 37°C for 16 h with shaking as a preculture. The preculture was diluted 100-fold with the minimal medium in 96-well plate, and 32 µM of LfcinB were added. The mixture was incubated with shaking in a microplate reader at 37°C, and the absorbance was measured after 9 h. Finally, the mixture was harvested by centrifugation at 3452 g for 5 min at 4°C, and each supernatant was removed. The pellets were then stored at −80°C.
To extract the pyruvate in E. coli, hot water extraction was used, a procedure adapted from Canelas et al.. Boiling water was poured into the pellet and it was immediately vortexed. The mixture was then placed in a water bath at 95–100°C for 15 min and cooled on ice. […] Finally, the OD570 of the mixtures was measured by a microplate reader to detect the color intensity.

Substance: Lactoferricin B (Biotin-FKCRRWQWRMKKLGAPSITCVRRAF; ends and bridges not checked) [LfcinB]
- degree of polarization vs BSA ([1]; 100 nM DyLight 549-labeled LfcinB, protein 0.025-0.4 µM, PBS, 0.005% BSA, 0.01% Triton X-100, room temperature, 1 h, Figure 5D): higher polarization than the negative control
- concentration dependence of polarization ([1]; CyaA, two-fold dilution 0.4 µM to 0.025 µM, 100 nM labeled LfcinB): increased with increasing concentrations of these 4 proteins
- binding to NrdD [2]: confirmed to bind to LfcinB
- growth curves, initial part (0–1.5 h), with vs without LfcinB ([3]; 0–1.5 h): higher growth curves than the strains grown without LfcinB
- slopes of growth curves, middle part (2–4 h), with vs without LfcinB ([3]; 2–4 h): lower than the slopes of the strains without LfcinB
- bacterial growth inhibition and membrane effect [4]: inhibits bacterial growth by impeding intracellular activities without destroying membrane integrity or penetrating the cytoplasmic membrane
- mechanism of antimicrobial activity [4]: pore-forming mechanism
- growth with LfcinB [5]: the growth was inhibited by LfcinB
- growth curve with vs without LfcinB [6]: significant inhibited
- growth with LfcinB [7]: inhibited the growth of the isogenic parent strain
- binding to YcaO [8]: confirmed to bind to LfcinB
- binding to YhaN [9]: confirmed to bind to LfcinB
- binding to GldA [10]: confirmed to bind to LfcinB
- degree of polarization vs BSA ([11]; 100 nM DyLight 549-labeled LfcinB, protein 0.025-0.4 µM, PBS, 0.005% BSA, 0.01% Triton X-100, room temperature, 1 h, Figure 5B): higher polarization than the negative control
- concentration dependence of polarization ([11]; NrdF, two-fold dilution 0.4 µM to 0.025 µM, 100 nM labeled LfcinB): increased with increasing concentrations of these 4 proteins
- pyruvate (OD570) level after 9 h with vs without LfcinB ([12]; minimal medium): accumulation of pyruvate; also recorded: higher than the level in E. coli without LfcinB
- Value of pyruvate (OD570) after 9 h incubation ([12]; minimal medium with glucose, 37°C, hot water extraction, pyruvate assay kit, E. coli without LfcinB 1.976±0.084): 2.526±0.338
